Laboratory results taken from US20230141600A1, “IMIDAZOPYRAZINE DERIVATIVES” (priority 2020, published 2023).
Structures can show the parent of a compound that is named as a salt.

These compounds were tested on Acinetobacter baumannii ATCC17961 (assay: 90% growth inhibitory concentration (IC90) determination, antimicrobial susceptibility testing). Conditions: Acinetobacter baumannii, ATCC17961, 16 h, 90% growth inhibition, Iso-Sensitest broth, OD 600 nm over 16 h, 35±2° C.; read-out: ATCC 17961 IC90.
Type: cell-based
Method in brief: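 Twofold serial dilutions (e.g. 50 to 0.097 μM final) in Iso-Sensitest broth, inoculated at ~5×10^5 CFU/ml and incubated at 35±2 °C for 16 h with OD600 read every minute. IC90 taken from growth inhibition during the logarithmic phase.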

Row | SMILES | IC90
1 | COc1ccc(-c2cnc3c(Nc4ccc(C(=O)N5CCN(C(=O)C[N+](C)(C)C)CC5)c(Cl)c4)nccn23)c(F)c1F [Example 12, 2-(4-(2-Chloro-4-((3-(2,3-difluoro-4-methoxyphenyl)imidazo[1,2-a]pyrazin-8-yl)amino)benzoyl)piperazin-1-yl)-N,N,N-trimethyl-2-oxoethan-1-aminium Iodide] | 44.7 nM
2 | CCc1cc(Nc2nccn3c(-c4ccc(OC)c(F)c4F)cnc23)ccc1C(=O)NCCC[N+](C)(CC1CNC1)CC1CNC1 [Example 139, Bis(azetidin-3-ylmethyl)-[3-[[4-[[3-(2,3-difluoro-4-methoxy-phenyl)imidazo[1,2-a]pyrazin-8-yl]amino]-2-ethyl-benzoyl]amino]propyl]-methyl-ammonium bis(2,2,2-trifluoroacetate)] | 4820 nM
3 | CCc1cc(Nc2nccn3c(-c4cn(CC#N)nc4C(F)(F)F)cnc23)ccc1C(=O)NCCOCC[N+]1(CC#N)CCOCC1 [Example 78, 4-(Cyanomethyl)-4-(2-(2-(4-((3-(1-(cyanomethyl)-3-(trifluoromethyl)-1H-pyrazol-4-yl)imidazo[1,2-a]pyrazin-8-yl)amino)-2-ethylbenzamido)ethoxy)ethyl)morpholin-4-ium Formate] | 467 nM
4 | C[N+](C)(C)CC(=O)N1CCN(C(=O)c2ccc(Nc3nccn4c(-c5cn(CC#N)nc5C(F)(F)F)cnc34)cc2Cl)CC1 [Example 65, [2-[4-[2-Chloro-4-[[3-[1-(cyanomethyl)-3-(trifluoromethyl)pyrazol-4-yl]imidazo[1,2-a]pyrazin-8-yl]amino]benzoyl]piperazin-1-yl]-2-oxo-ethyl]-trimethyl-ammonium Formate] | 546 nM
5 | CCc1cc(Nc2nccn3c(-c4ccc(OC(F)F)c(F)c4F)cnc23)ccc1C(=O)N1CC2(C1)CN(C(=O)C1CC[N+](C)(CC3CCNC3)CC1)C2 (stereo not drawn) [Example 95, [4-[[3-[4-(difluoromethoxy)-2,3-difluoro-phenyl]imidazo[1,2-a]pyrazin-8-yl]amino]-2-ethyl-phenyl]-[2-[1-methyl-1-(pyrrolidin-3-ylmethyl)piperidin-1-ium-4-carbonyl]-2,6-diazaspiro[3.3]heptan-6-yl]methanone bis(2,2,2-trifluoroacetate)] | 725 nM
6 | CCc1cc(Nc2nccn3c(-c4ccc(OC)c(F)c4F)cnc23)ccc1C(=O)N[C@H]1CC[C@H](NC(=O)C[N+](C)(C)C)CC1 [Example 77, Trans-[2-[[4-[[4-[[3-(2,3-Difluoro-4-methoxyphenyl)imidazo[1,2-a]pyrazin-8-yl]amino]-2-ethylbenzoyl]amino]cyclohexyl]amino]-2-oxoethyl]-trimethylazanium formate] | 342 nM
7 | CCc1cc(Nc2nccn3c(-c4ccc(OC)c(F)c4F)cnc23)ccc1C(=O)NCCCCC[N+](C)(CCCC(=O)O)CC1CNC1 (stereo not drawn) [Example 107, Azetidin-3-ylmethyl-(3-carboxypropyl)-[5-[[4-[[3-(2,3-difluoro-4-methoxy-phenyl)imidazo[1,2-a]pyrazin-8-yl]amino]-2-ethyl-benzoyl]amino]pentyl]-methyl-ammonium 2,2,2-trifluoroacetate] | 434 nM
8 | CCc1cc(Nc2nccn3c(-c4ccc(OC)c(F)c4F)cnc23)ccc1C(=O)NC1CN(C(=O)C[N+](C)(C)CC(N)=O)C1 [Example 71, 2-Amino-N-(2-(3-(4-((3-(2,3-difluoro-4-methoxyphenyl)imidazo[1,2-a]pyrazin-8-yl)amino)-2-ethylbenzamido)azetidin-1-yl)-2-oxoethyl)-N,N-dimethyl-2-oxoethan-1-aminium Formate] | 67.7 nM
9 | COc1ccc(-c2cnc3c(Nc4ccc(C(=O)N[C@H]5CC[C@H](NC(=O)C[N+](C)(C)C)CC5)c(C)c4)nccn23)c(F)c1F [Example 69, 2-(((1r,4r)-4-(4-((3-(2,3-Difluoro-4-methoxyphenyl)imidazo[1,2-a]pyrazin-8-yl)amino)-2-methylbenzamido)cyclohexyl)amino)-N,N,N-trimethyl-2-oxoethan-1-aminium Chloride] | 263 nM
10 | COc1ccc(-c2cnc3c(Nc4ccc(C(=O)N[C@H]5CCN(C(=O)C[N+](C)(C)C)C5)c(C)c4)nccn23)c(F)c1F [Example 67, (S)-2-(3-(4-((3-(2,3-Difluoro-4-methoxyphenyl)imidazo[1,2-a]pyrazin-8-yl)amino)-2-methylbenzamido)pyrrolidin-1-yl)-N,N,N-trimethyl-2-oxoethan-1-aminium Chloride] | 44.8 nM
11 | COc1ccc(-c2cnc3c(Nc4ccc(C(=O)N[C@H]5C[C@@H](NC(=O)C[N+](C)(C)C)C5)c(C)c4)nccn23)c(F)c1F [Example 72, 2-(((1s,3s)-3-(4-((3-(2,3-Difluoro-4-methoxyphenyl)imidazo[1,2-a]pyrazin-8-yl)amino)-2-methylbenzamido)cyclobutyl)amino)-N,N,N-trimethyl-2-oxoethan-1-aminium Chloride] | 40.3 nM
12 | CCc1cc(Nc2nccn3c(-c4ccc(OC)c(F)c4F)cnc23)ccc1C(=O)NCCCCC[N+](C)(CCCCCN)CC(=O)O (stereo not drawn) [Example 11, 5-Aminopentyl-(carboxymethyl)-[5-[[4-[[3-(2,3-difluoro-4-methoxy-phenyl)imidazo[1,2-a]pyrazin-8-yl]amino]-2-ethyl-benzoyl]amino]pentyl]-methyl-ammonium 2,2,2-trifluoroacetate] | 131 nM
13 | CCc1cc(Nc2nccn3c(-c4ccc(OC(F)F)c(F)c4F)cnc23)ccc1C(=O)N1CCN(C(=O)C2CC[N+](C)(CCN)CC2)CC1 (stereo not drawn) [Example 83, [4-[1-(2-aminoethyl)-1-methyl-piperidin-1-ium-4-carbonyl]piperazin-1-yl]-[4-[[3-[4-(difluoromethoxy)-2,3-difluoro-phenyl]imidazo[1,2-a]pyrazin-8-yl]amino]-2-ethyl-phenyl]methanone bis(2,2,2-trifluoroacetate)] | 127 nM
14 | CCc1cc(Nc2nccn3c(-c4ccc(OC(F)F)c(F)c4F)cnc23)ccc1C(=O)N1CCN(C(=O)C2CC[N+](C)(CC3CNC3)CC2)C(C(=O)OC)C1 (stereo not drawn) [Example 94, methyl 1-[1-(azetidin-3-ylmethyl)-1-methyl-piperidin-1-ium-4-carbonyl]-4-[4-[[3-[4-(difluoromethoxy)-2,3-difluoro-phenyl]imidazo[1,2-a]pyrazin-8-yl]amino]-2-ethyl-benzoyl]piperazine-2-carboxylate tris(2,2,2-trifluoroacetate)] | 457 nM
15 | CCc1cc(Nc2nccn3c(-c4ccc(OC)c(F)c4F)cnc23)ccc1C(=O)N[C@@H](CNC(=O)C1CC[N+](C)(CC2CNC2)CC1)C(=O)OC (mixture of isomers) [Example 122, Methyl (2S)-3-[[1-(azetidin-3-ylmethyl)-1-methyl-piperidin-1-ium-4-carbonyl]amino]-2-[[4-[[3-(2,3-difluoro-4-methoxy-phenyl)imidazo[1,2-a]pyrazin-8-yl]amino]-2-ethyl-benzoyl]amino]propanoate formate 2,2,2-trifluoroacetate (Mixed Salt)] | 1110 nM
16 | CCc1cc(Nc2nccn3c(-c4ccc(OC)c(F)c4F)cnc23)ccc1C(=O)NCC1CC[N+](C)(CC2CCCN2)CC1 (stereo not drawn) [Example 142, 4-[[3-(2,3-Difluoro-4-methoxy-phenyl)imidazo[1,2-a]pyrazin-8-yl]amino]-2-ethyl-N-[[1-methyl-1-(pyrrolidin-2-ylmethyl)piperidin-1-ium-4-yl]methyl]benzamide 2,2,2-trifluoroacetate] | 336 nM
17 | CCc1cc(Nc2nccn3c(-c4ccc(Oc5ncccn5)c(F)c4F)cnc23)ccc1C(=O)NCC1CC[N+](C)(CC2CCNC2)CC1 (stereo not drawn) [Example 118, 4-[[3-(2,3-Difluoro-4-pyrimidin-2-yloxy-phenyl)imidazo[1,2-a]pyrazin-8-yl]amino]-2-ethyl-N-[[1-methyl-1-(pyrrolidin-3-ylmethyl)piperidin-1-ium-4-yl]methyl]benzamide Formate] | 832 nM
18 | CCc1cc(Nc2nccn3c(-c4ccc(OC(F)F)c(F)c4F)cnc23)ccc1C(=O)NCCCCC[N+](C)(C)CC(=O)N1CCNCC1 [Example 79, 5-[[4-[[3-[4-(Difluoromethoxy)-2,3-difluoro-phenyl]imidazo[1,2-a]pyrazin-8-yl]amino]-2-ethyl-benzoyl]amino]pentyl-dimethyl-(2-oxo-2-piperazin-1-yl-ethyl)ammonium bis(2,2,2-trifluoroacetate)] | 82.2 nM
19 | C[N+]1(CC2CCNC2)CCC(C(=O)NCCCNC(=O)c2ccc(Nc3nccn4c(-c5ccc(OC(F)F)c(F)c5F)cnc34)cc2Cl)CC1 (stereo not drawn) [Example 117, N-[3-[[2-Chloro-4-[[3-[4-(difluoromethoxy)-2,3-difluoro-phenyl]imidazo[1,2-a]pyrazin-8-yl]amino]benzoyl]amino]propyl]-1-methyl-1-(pyrrolidin-3-ylmethyl)piperidin-1-ium-4-carboxamide Formate] | 157 nM
20 | COc1ccc(-c2cnc3c(Nc4ccc(C(=O)N[C@H]5C[C@@H](NC(=O)C[N+](C)(C)C)C5)c(Cl)c4)nccn23)c(F)c1F [Example 59, [2-[[3-[[2-Chloro-4-[[3-(2,3-difluoro-4-methoxy-phenyl)imidazo[1,2-a]pyrazin-8-yl]amino]benzoyl]amino]cyclobutyl]amino]-2-oxo-ethyl]-trimethyl-ammonium formate] | 41 nM

Same assay, conditions: Acinetobacter baumannii, ATCC17961, 16 h, read-out: ATCC 17961 IC90

Row | SMILES | IC90
21 | CCc1cc(Nc2nccn3c(-c4ccc(OC(F)F)c(F)c4F)cnc23)ccc1C(=O)NCC1CC[N+](C)(CC2CNC2)CC1 (stereo not drawn) [Example 87, N-[[1-(azetidin-3-ylmethyl)-1-methyl-piperidin-1-ium-4-yl]methyl]-4-[[3-[4-(difluoromethoxy)-2,3-difluoro-phenyl]imidazo[1,2-a]pyrazin-8-yl]amino]-2-ethyl-benzamide Diformate] | 318 nM
